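The compound was tested at five concentrations on cells cultured in 96-well plates, with a 48-hour exposure period. TGI is the concentration that stops growth completely.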
What was measured:
Assay in all cases: growth of human tumour cells (NCI), 48 h
NCI-H460 lung = system: NCI-H460 lung
NCI-H226 lung = system: NCI-H226 lung
SK-OV-3 ovarian = system: SK-OV-3 ovarian
SF-295 CNS = system: SF-295 CNS
DMS 114 small cell lung = system: DMS 114 small cell lung
COLO 205 colon = system: COLO 205 colon
UO-31 renal = system: UO-31 renal
OVCAR-8 ovarian = system: OVCAR-8 ovarian
K-562 leukemia = system: K-562 leukemia
HCT-15 colon = system: HCT-15 colon
DMS 273 small cell lung = system: DMS 273 small cell lung
UACC-62 melanoma = system: UACC-62 melanoma
HT29 colon = system: HT29 colon
MALME-3M melanoma = system: MALME-3M melanoma
SNB-19 CNS = system: SNB-19 CNS
OVCAR-5 ovarian = system: OVCAR-5 ovarian
SF-539 CNS = system: SF-539 CNS
SK-MEL-2 melanoma = system: SK-MEL-2 melanoma
UACC-257 melanoma = system: UACC-257 melanoma
HCT-116 colon = system: HCT-116 colon
A498 renal = system: A498 renal
LOX IMVI melanoma = system: LOX IMVI melanoma
RXF 393 renal = system: RXF 393 renal
M19-MEL melanoma = system: M19-MEL melanoma
SNB-78 CNS = system: SNB-78 CNS
SK-MEL-5 melanoma = system: SK-MEL-5 melanoma
A549 NSCLC = system: A549 NSCLC
HOP-62 NSCLC = system: HOP-62 NSCLC
M14 melanoma = system: M14 melanoma
SW-620 colon = system: SW-620 colon
786-0 renal = system: 786-0 renal
HL-60(TB) leukemia = system: HL-60(TB) leukemia
SN12C renal = system: SN12C renal
MOLT-4 leukemia = system: MOLT-4 leukemia
KM20L2 colon = system: KM20L2 colon
KM12 colon = system: KM12 colon
TK-10 renal = system: TK-10 renal
OVCAR-3 ovarian = system: OVCAR-3 ovarian
SK-MEL-28 melanoma = system: SK-MEL-28 melanoma
SNB-75 CNS = system: SNB-75 CNS
EKVX NSCLC = system: EKVX NSCLC
RPMI-8226 leukemia = system: RPMI-8226 leukemia
SF-268 CNS = system: SF-268 CNS
BT-549 breast = system: BT-549 breast
ACHN renal = system: ACHN renal
CAKI-1 renal = system: CAKI-1 renal
DU-145 prostate = system: DU-145 prostate
HS 578T breast = system: HS 578T breast
T-47D breast = system: T-47D breast
MDA-N = system: MDA-N
NCI-H23 lung = system: NCI-H23 lung
SR leukemia = system: SR leukemia
NCI-H522 lung = system: NCI-H522 lung
MCF7 breast = system: MCF7 breast
NCI/ADR-RES ovarian = system: NCI/ADR-RES ovarian
CCRF-CEM leukemia = system: CCRF-CEM leukemia
HOP-92 NSCLC = system: HOP-92 NSCLC
PC-3 prostate = system: PC-3 prostate
IGROV1 ovarian = system: IGROV1 ovarian
OVCAR-4 ovarian = system: OVCAR-4 ovarian
MDA-MB-231 breast = system: MDA-MB-231 breast
MDA-MB-435 = system: MDA-MB-435
U251 CNS = system: U251 CNS
HCC-2998 colon = system: HCC-2998 colon

Compound `CN(C)c1ccc(/C=C/C=C\C2=CC(=C\C=C/C=C3C=CC(=[N+](C)C)C=C3)/Sc3ccccc32)cc1` has a TGI (NCI-H460 lung) of over 100 µM, a TGI (NCI-H226 lung) of over 100 µM and a TGI (SK-OV-3 ovarian) of over 100 µM. It also gave a TGI (SF-295 CNS) of over 100 µM, a TGI (DMS 114 small cell lung) of 24.4 µM and a TGI (COLO 205 colon) of 78.3 µM. The TGI (UO-31 renal) was over 100 µM, the TGI (OVCAR-8 ovarian) was over 100 µM and the TGI (K-562 leukemia) was over 100 µM. It also gave a TGI (HCT-15 colon) of over 100 µM, a TGI (DMS 273 small cell lung) of over 100 µM and a TGI (UACC-62 melanoma) of over 100 µM. It also gave a TGI (HT29 colon) of over 100 µM, a TGI (MALME-3M melanoma) of over 100 µM and a TGI (SNB-19 CNS) of over 100 µM. It also gave a TGI (OVCAR-5 ovarian) of over 100 µM, a TGI (SF-539 CNS) of over 100 µM and a TGI (SK-MEL-2 melanoma) of over 100 µM. The TGI (UACC-257 melanoma) was over 100 µM, the TGI (HCT-116 colon) was over 100 µM and the TGI (A498 renal) was over 100 µM. For the same compound, the TGI (LOX IMVI melanoma) was 64.1 µM, the TGI (RXF 393 renal) was 32.7 µM and the TGI (M19-MEL melanoma) was 35 µM. The TGI (SNB-78 CNS) was over 100 µM, the TGI (SK-MEL-5 melanoma) was over 100 µM and the TGI (A549 NSCLC) was over 100 µM. For the same compound, the TGI (HOP-62 NSCLC) was over 100 µM, the TGI (M14 melanoma) was 27.5 µM and the TGI (SW-620 colon) was over 100 µM. For the same compound, the TGI (786-0 renal) was over 100 µM, the TGI (HL-60(TB) leukemia) was over 100 µM and the TGI (SN12C renal) was over 100 µM. It also gave a TGI (MOLT-4 leukemia) of over 100 µM, a TGI (KM20L2 colon) of over 100 µM and a TGI (KM12 colon) of over 100 µM. For the same compound, the TGI (TK-10 renal) was over 100 µM, the TGI (OVCAR-3 ovarian) was over 100 µM and the TGI (SK-MEL-28 melanoma) was 28.9 µM. The TGI (SNB-75 CNS) was over 100 µM, the TGI (EKVX NSCLC) was over 100 µM and the TGI (RPMI-8226 leukemia) was over 100 µM. For the same compound, the TGI (SF-268 CNS) was over 100 µM.
With `O=C(O)CSSCC(=O)O` the TGI (BT-549 breast) was over 100 µM, the TGI (NCI-H460 lung) was over 100 µM and the TGI (NCI-H226 lung) was over 100 µM. For the same compound, the TGI (SK-OV-3 ovarian) was over 100 µM, the TGI (SF-295 CNS) was over 100 µM and the TGI (ACHN renal) was over 100 µM. It also gave a TGI (COLO 205 colon) of over 100 µM, a TGI (UO-31 renal) of over 100 µM and a TGI (OVCAR-8 ovarian) of over 100 µM. For the same compound, the TGI (K-562 leukemia) was over 100 µM, the TGI (HCT-15 colon) was over 100 µM and the TGI (UACC-62 melanoma) was over 100 µM. The TGI (HT29 colon) was over 100 µM, the TGI (CAKI-1 renal) was over 100 µM and the TGI (DU-145 prostate) was over 100 µM. For the same compound, the TGI (MALME-3M melanoma) was over 100 µM, the TGI (SNB-19 CNS) was over 100 µM and the TGI (OVCAR-5 ovarian) was over 100 µM. The TGI (HS 578T breast) was over 100 µM, the TGI (SF-539 CNS) was over 100 µM and the TGI (T-47D breast) was over 100 µM. The TGI (SK-MEL-2 melanoma) was over 100 µM, the TGI (MDA-N) was over 100 µM and the TGI (UACC-257 melanoma) was over 100 µM. It also gave a TGI (NCI-H23 lung) of over 100 µM, a TGI (HCT-116 colon) of over 100 µM and a TGI (A498 renal) of over 100 µM. It also gave a TGI (LOX IMVI melanoma) of over 100 µM, a TGI (RXF 393 renal) of over 100 µM and a TGI (SK-MEL-5 melanoma) of over 100 µM. The TGI (A549 NSCLC) was over 100 µM, the TGI (HOP-62 NSCLC) was over 100 µM and the TGI (SR leukemia) was over 100 µM. For the same compound, the TGI (NCI-H522 lung) was over 100 µM, the TGI (M14 melanoma) was over 100 µM and the TGI (MCF7 breast) was over 100 µM. For the same compound, the TGI (SW-620 colon) was over 100 µM, the TGI (786-0 renal) was over 100 µM and the TGI (HL-60(TB) leukemia) was over 100 µM. For the same compound, the TGI (SN12C renal) was over 100 µM, the TGI (MOLT-4 leukemia) was over 100 µM and the TGI (NCI/ADR-RES ovarian) was over 100 µM. The TGI (KM12 colon) was over 100 µM, the TGI (CCRF-CEM leukemia) was over 100 µM and the TGI (TK-10 renal) was over 100 µM. For the same compound, the TGI (OVCAR-3 ovarian) was over 100 µM, the TGI (HOP-92 NSCLC) was over 100 µM and the TGI (PC-3 prostate) was over 100 µM. It also gave a TGI (SK-MEL-28 melanoma) of over 100 µM, a TGI (IGROV1 ovarian) of over 100 µM and a TGI (OVCAR-4 ovarian) of over 100 µM. For the same compound, the TGI (SNB-75 CNS) was over 100 µM, the TGI (MDA-MB-231 breast) was over 100 µM and the TGI (EKVX NSCLC) was over 100 µM. For the same compound, the TGI (RPMI-8226 leukemia) was over 100 µM, the TGI (MDA-MB-435) was over 100 µM and the TGI (SF-268 CNS) was over 100 µM. It also gave a TGI (U251 CNS) of over 100 µM and a TGI (HCC-2998 colon) of over 100 µM.

Source: PubChem BioAssay (NCI)
